This is an account of results in ChEMBL document CHEMBL1153174, “Structure-activity relationships of N-substituted ligands for the alpha7 nicotinic acetylcholine receptor” (Bioorg Med Chem Lett, 2010).

The term Ki denotes a measure of affinity in units of concentration, obtained from inhibition or displacement. High values mean lower affinity, low ones higher affinity. As usually defined, the EC50 is the midpoint of the concentration-response curve.

Experiment [1] has as its target Neuronal acetylcholine receptor; alpha4/beta2 (Rattus norvegicus) (UniProt P09483+P12390). In words: Displacement of [3H]cytisine from rat brain alpha4beta2 nAChR up to 10 uM. On the technique in general: Loss of bound radioactivity is the signal in a displacement assay; it reports binding, not function.
Experiment [2] has as its target Neuronal acetylcholine receptor subunit alpha-7 (Rattus norvegicus, UniProt Q05941). In words: Displacement of [3H]585539 from alpha7 nAChR in rat brain. Format: tissue-based.
The target in experiment [3] is Neuronal acetylcholine receptor; alpha3/beta4 (Homo sapiens, UniProt P30926+P32297). In words: Inhibition of alpha3beta4 nAChR.
Sequence of Neuronal acetylcholine receptor; alpha3/beta4 (P30926 whole entry): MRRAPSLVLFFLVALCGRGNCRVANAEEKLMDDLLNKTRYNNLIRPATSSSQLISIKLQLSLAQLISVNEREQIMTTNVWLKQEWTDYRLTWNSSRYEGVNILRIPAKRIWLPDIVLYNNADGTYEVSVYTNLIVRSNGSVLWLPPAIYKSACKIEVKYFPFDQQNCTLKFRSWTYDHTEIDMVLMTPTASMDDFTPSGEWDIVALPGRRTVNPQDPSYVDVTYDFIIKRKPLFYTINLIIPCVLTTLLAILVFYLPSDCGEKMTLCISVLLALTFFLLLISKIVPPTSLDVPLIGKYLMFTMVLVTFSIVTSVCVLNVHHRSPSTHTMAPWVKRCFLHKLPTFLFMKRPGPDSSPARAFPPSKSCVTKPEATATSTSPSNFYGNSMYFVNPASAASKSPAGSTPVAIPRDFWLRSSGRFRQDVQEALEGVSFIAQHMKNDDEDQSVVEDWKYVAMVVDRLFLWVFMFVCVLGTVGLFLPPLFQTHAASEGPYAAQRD
Sequence of Neuronal acetylcholine receptor; alpha3/beta4 (P32297 whole entry): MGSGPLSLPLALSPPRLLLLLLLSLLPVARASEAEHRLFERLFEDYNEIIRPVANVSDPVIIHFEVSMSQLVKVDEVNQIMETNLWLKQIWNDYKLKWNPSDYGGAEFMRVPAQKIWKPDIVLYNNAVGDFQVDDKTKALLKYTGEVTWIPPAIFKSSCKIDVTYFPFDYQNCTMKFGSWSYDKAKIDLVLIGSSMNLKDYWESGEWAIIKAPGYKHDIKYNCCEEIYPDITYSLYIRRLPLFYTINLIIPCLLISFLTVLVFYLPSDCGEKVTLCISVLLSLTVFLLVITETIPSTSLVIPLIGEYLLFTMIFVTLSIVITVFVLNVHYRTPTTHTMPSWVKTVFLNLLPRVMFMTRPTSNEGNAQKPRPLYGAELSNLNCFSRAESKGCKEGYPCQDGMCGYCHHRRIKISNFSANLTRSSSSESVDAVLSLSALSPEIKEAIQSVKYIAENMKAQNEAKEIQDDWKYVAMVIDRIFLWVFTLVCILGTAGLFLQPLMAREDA
The target in experiment [4] is Neuronal acetylcholine receptor; alpha4/beta2 (Homo sapiens, UniProt P17787+P43681). In words: Inhibition of alpha4beta2 nAChR. Format: protein-complex assay.
Sequence of Neuronal acetylcholine receptor; alpha4/beta2 (P17787 whole entry): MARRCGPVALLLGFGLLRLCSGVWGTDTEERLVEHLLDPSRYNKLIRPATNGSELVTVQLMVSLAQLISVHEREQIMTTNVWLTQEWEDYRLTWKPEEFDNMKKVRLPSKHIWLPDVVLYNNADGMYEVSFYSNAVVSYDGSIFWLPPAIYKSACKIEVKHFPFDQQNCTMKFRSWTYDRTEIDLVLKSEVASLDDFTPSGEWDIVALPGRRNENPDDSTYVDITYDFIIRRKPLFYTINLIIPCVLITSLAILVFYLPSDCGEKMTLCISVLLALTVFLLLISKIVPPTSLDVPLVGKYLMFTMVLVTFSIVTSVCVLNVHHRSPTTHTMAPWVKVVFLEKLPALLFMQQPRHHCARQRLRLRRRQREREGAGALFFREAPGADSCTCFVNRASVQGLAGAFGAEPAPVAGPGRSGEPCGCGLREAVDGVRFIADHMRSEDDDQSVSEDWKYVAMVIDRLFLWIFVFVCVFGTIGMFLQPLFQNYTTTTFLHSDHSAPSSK
Sequence of Neuronal acetylcholine receptor; alpha4/beta2 (P43681 whole entry): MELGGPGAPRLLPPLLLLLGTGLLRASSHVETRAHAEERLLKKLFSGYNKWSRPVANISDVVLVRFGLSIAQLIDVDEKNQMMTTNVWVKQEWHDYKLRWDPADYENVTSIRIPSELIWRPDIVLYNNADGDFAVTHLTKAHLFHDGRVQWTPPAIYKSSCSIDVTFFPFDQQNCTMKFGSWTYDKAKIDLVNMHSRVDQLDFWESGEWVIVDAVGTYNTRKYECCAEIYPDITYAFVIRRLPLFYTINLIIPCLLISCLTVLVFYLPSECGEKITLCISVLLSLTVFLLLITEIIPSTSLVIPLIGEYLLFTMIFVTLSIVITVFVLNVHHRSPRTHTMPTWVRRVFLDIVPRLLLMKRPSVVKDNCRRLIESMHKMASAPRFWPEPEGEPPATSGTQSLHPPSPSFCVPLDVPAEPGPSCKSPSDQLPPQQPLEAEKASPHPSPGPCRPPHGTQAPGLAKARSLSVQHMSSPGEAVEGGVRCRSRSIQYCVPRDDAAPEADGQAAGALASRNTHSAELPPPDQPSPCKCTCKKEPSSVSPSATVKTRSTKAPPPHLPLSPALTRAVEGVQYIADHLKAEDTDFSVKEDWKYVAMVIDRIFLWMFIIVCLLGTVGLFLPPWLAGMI
The target in experiment [5] is T1, Neuronal acetylcholine receptor subunit alpha-7 (Homo sapiens, UniProt P36544). Description: Agonist activity at human recombinant alpha7 nAChR expressed in xenopus oocytes assessed as induction of Ca2+ current relative to acetylcholine. Format: functional, cell-based. The conditions noted are these: Oocyte.
T1 sequence (P36544 whole entry): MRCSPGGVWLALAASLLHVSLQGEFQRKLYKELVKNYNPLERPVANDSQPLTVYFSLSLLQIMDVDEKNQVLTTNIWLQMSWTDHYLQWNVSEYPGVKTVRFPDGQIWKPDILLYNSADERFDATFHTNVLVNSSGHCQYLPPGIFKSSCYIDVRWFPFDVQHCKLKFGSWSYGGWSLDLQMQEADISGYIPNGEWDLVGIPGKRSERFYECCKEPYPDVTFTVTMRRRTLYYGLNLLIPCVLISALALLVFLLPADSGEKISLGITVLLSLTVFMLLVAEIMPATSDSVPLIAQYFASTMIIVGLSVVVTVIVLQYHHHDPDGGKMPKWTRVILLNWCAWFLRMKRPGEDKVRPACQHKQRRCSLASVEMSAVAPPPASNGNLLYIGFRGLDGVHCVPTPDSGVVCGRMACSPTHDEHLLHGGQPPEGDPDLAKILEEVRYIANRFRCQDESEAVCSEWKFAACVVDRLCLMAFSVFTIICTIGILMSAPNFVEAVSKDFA
Experiment [6] has as its target T1, Neuronal acetylcholine receptor subunit alpha-7. In words: Agonist activity at human recombinant alpha7 nAChR expressed in xenopus oocytes assessed as induction of Ca2+ current. Format: functional, cell-based, Oocyte.

Activity calls are given as the source filed them. The calls are words filed in the database; no cut-off is given here.

Sequence of Neuronal acetylcholine receptor subunit alpha-7 (Rattus norvegicus, UniProt Q05941) (Q05941 whole entry): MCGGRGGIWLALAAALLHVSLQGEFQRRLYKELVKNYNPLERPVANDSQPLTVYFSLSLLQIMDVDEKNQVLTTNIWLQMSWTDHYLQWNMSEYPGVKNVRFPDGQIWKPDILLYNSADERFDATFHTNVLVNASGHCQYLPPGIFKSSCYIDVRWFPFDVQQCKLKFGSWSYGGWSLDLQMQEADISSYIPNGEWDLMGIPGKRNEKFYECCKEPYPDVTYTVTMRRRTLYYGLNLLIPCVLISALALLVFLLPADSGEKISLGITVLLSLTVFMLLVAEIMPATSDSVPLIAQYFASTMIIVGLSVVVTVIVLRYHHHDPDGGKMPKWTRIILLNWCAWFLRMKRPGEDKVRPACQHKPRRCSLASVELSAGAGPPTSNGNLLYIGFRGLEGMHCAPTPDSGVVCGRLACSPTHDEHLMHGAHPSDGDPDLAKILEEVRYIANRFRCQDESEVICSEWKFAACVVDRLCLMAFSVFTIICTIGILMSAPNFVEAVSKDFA

Turning to `CN(Cc1ccncc1)C1CCN(c2ccc(-c3ccccc3)nn2)C1` (racemic), the outcome in experiment [1] was inactive. For the same compound, the Ki in experiment [2] was greater than 10 nM.
For the compound `CN1C[C@@H]2CN(c3ccc(-c4ccccc4)nn3)C[C@@H]2C1`, the Ki was 4700 nM in experiment [3] and greater than 100000 nM in experiment [4].
In the case of `Clc1ccc(C2CC3CCC2N3)cn1` (stereo not drawn), in experiment [4], the INH was 0.1 nM.
With `c1ccc(-c2ccc(N3C[C@H]4CN(Cc5ccccn5)C[C@H]4C3)nn2)cc1`, in experiment [1], the outcome was inactive. The compound further had a Ki in experiment [2] of 533 nM.
The matching figures for `c1ccc(-c2ccc(N3C[C@H]4CN(Cc5ccncc5)C[C@H]4C3)nn2)cc1`: “inactive” and 541 nM.
On to `Clc1ccc(CN2C[C@@H]3CN(c4ccc(-c5ccccc5)nn4)C[C@@H]3C2)cn1`, for which, in experiment [5], the Activity was found to be 13%. The result in experiment [1] was inactive. The compound also gave a Ki in experiment [2] of 102 nM. In addition, in experiment [6], the EC50 is 11800 nM.
In the case of `c1ccc(CN2C[C@@H]3CN(c4ccc(-c5ccccc5)nn4)C[C@@H]3C2)cc1`, the result in experiment [1] was inactive. This compound also yielded a Ki in experiment [2] of 476 nM.
Take `CN1C[C@@H]2CN(c3ccc(-c4ccccc4)nn3)C[C@@H]2[C@@H]1COc1cccnc1`: in experiment [2], the Ki came to 320 nM. In addition, the EC50 in experiment [6] is greater than 100000 nM.
Take `CN(Cc1ccccn1)C1CCN(c2ccc(-c3ccccc3)nn2)C1` (racemic): the outcome in experiment [1] was inactive. In experiment [2], this compound yielded a Ki greater than 10000 nM.
Take `CN(Cc1ccccc1)C1CCN(c2ccc(-c3ccccc3)nn2)C1` (racemic): the outcome in experiment [1] was inactive. Further, in experiment [2], the Ki is greater than 10000 nM.
As for `CNC1CCN(c2ccc(-c3ccccc3)nn2)C1` (stereo not drawn), the Ki in experiment [2] is greater than 10 nM.
`CCN1C[C@@H]2CN(c3ccc(-c4ccccc4)nn3)C[C@@H]2C1`: in experiment [1], the outcome was inactive.
With `c1ccc(-c2ccc(N3C[C@H]4CN(Cc5cccnc5)C[C@H]4C3)nn2)cc1`, in experiment [5], the Activity is 84%. In experiment [1], the result was inactive. Further, affinity in experiment [2] was put at a Ki of 3.6 nM. Also, the EC50 in experiment [6] worked out at 9360 nM.
Regarding `CN(Cc1ccc(Cl)nc1)C1CCN(c2ccc(-c3ccccc3)nn2)C1` (racemic), in experiment [1], the outcome was inactive. For the same compound, the Ki in experiment [2] was greater than 10 nM.
As for `CN1C[C@@H]2CN(c3ccc(-c4ccccc4)nn3)C[C@@H]2[C@H]1COc1cccnc1`, the Activity in experiment [5] was 44%. Besides, the affinity in experiment [2], expressed as Ki, was 42 nM. The EC50 in experiment [6] is 12900 nM.
Consider `CN(Cc1cccnc1)C1CCN(c2ccc(-c3ccccc3)nn2)C1` (racemic), for which the result in experiment [1] was inactive. Besides, the Ki in experiment [2] is greater than 10000 nM.
Turning to `CN(C)C1CCN(c2ccc(-c3ccccc3)nn2)C1` (racemic), the outcome in experiment [1] was inactive. Further, the affinity in experiment [2] corresponds to a Ki of 478 nM.
In the same order, the values of `CCN(C)C1CCN(c2ccc(-c3ccccc3)nn2)C1` (racemic) are “inactive” and 746 nM.
